Experimental findings from patent US20260373101A1, “POLYAMINATED FATTY ACIDS FOR USE AS POTENTIATORS OF ANTIBACTERIAL ACTIVITY” (priority 2023, published 2026) are described below.

In brackets after ≈: the same amount, converted by molar mass.

Common to all, as to format: cell-based
In one experiment the test system is P. aeruginosa PA263. The experiment can be described thus: Potentiation of known antibiotics (MIC of antibiotic alone or with PAFA). Particulars: Pseudomonas aeruginosa, PA263, 24 h, 24 h. As for the experimental part: (§1) 100 μl of a liquid culture medium is deposited in each well of a 96-well microplate, and then inoculated with the bacterial suspension of example 2.1 prepared for the positive control. The volume needed to inoculate is calculated for an OD of 0.01 which corresponds to approximately 5,106 bacteria in each well. In this plate, the first row corresponds to a negative control (200 μl of sterile culture medium in each well), the second row to a positive control (100 μl of sterile culture medium with 100 μl of the bacterial suspension), the third row contains 192 μl of culture medium and 8 μl of an antibiotic solution (10 mg/ml) to be tested in each well. Subsequently, a cascade dilution is performed from this line. Next, 10 μl of a fatty acid solution (10 μM final concentration) is added to each well of the lines. Then, 90 μl of bacterial suspension is added to lines 3 to 8. The MIC of the antibiotic tested is determined after 24 hours of incubation at 37 °C in a humid atmosphere.
(§2) The table 3 below reports the antibacterial activity (MIC in μg/mL) of a combination of some polyaminated fatty acids prepared in example 1 with various antibacterial drugs: doxycycline (DOX), tetracycline (TET), oxytetracycline (OXY) and minocycline (MINO), against various bacterial strains of P. aeruginosa (PA01, PA0509, and PA263), and of E. coli (AG-100 and AG-100A).

A further experiment deals with E. coli AG-100A. Described as above. Particulars: Escherichia coli, AG100A, 24 h. As for the experimental part:
as §1, §2

Another experiment relates to E. coli AG-100. Described as above. The settings on record: Escherichia coli, AG100, 24 h. As to the method:
as §1, §2

For the next experiment, the system named is P. aeruginosa PA0509. Described as above. The settings on record: Pseudomonas aeruginosa, PA0509, 24 h. As for the experimental part:
as §1, §2

For the next experiment, the system named is P. aeruginosa PA01. The experiment is described as above. Particulars: Pseudomonas aeruginosa, PA01, 24 h. As to the method:
as §1, §2

Experiment [1] deals with P. aeruginosa ATCC27853. The experiment can be described thus: Antibacterial activity in combination with doxycycline. Particulars: Pseudomonas aeruginosa, 24 h. As to the method:
100 μl of a liquid culture medium is deposited in each well of a 96-well microplate, and then inoculated with the bacterial suspension of example 2.1 prepared for the positive control. The volume needed to inoculate is calculated for an OD of 0.01 which corresponds to approximately 5,106 bacteria in each well. In this plate, the first row corresponds to a negative control (200 μl of sterile culture medium in each well), the second row to a positive control (100 μl of sterile culture medium with 100 μl of the bacterial suspension), the third row contains 192 μl of culture medium and 8 μl of polyaminated fatty acid compound to be tested in each well. Subsequently, a cascade dilution is performed from this line. Next, 3-8 μl of a doxycycline solution (1 mg dissolved in 20 ml) is added to each well of the lines to obtain a final antibiotic concentration of 2 μg/ml. Then, 92 μl of bacterial suspension is added to lines 3 to 8. The MIC with a concentration of doxycycline of 2 μg/ml in the presence of X μg/ml of polyaminated fatty acid compound is determined after 24 hours of incubation at 37 °C in a humid atmosphere.
The table 2 below reports the antibacterial activity (MIC in μM) of a combination of some polyaminated fatty acids prepared in example 1 with two antibacterial drugs doxycycline and erythromycin. […] On the Gram-negative strain of E. coli ([…]), erythromycin has a MIC of 50 μg/ml.

A further experiment concerns E. faecalis ATCC29212. The experiment can be described thus: Intrinsic antibacterial activity, standard microdilution (CLSI). The settings on record: Enterococcus faecalis; E. faecalis ATCC29212, compound alone, 24 h, 37 °C. As to the method:
(§3) The bacterial strains used in the examples below are the reference strains P. aeruginosa ATCC27853, E. coli ATCC25922, K. pneumoniae ATCC51296, S. aureus ATCC25923 and E. faecalis ATCC29212. The bacterial strains were previously stored in 15% (v/v) glycerol at −80 °C for cryoprotection. One colony of the fresh culture of each strain was incubated in a culture tube containing 3 ml of Mueller-Hinton broth (MH2) at 37 °C overnight with agitation. This suspension was used for inoculum preparation.
(§4) The antibacterial activity of said polyaminated fatty acid compounds was measured using a standard microdilution test based on Clinical and Laboratory Standards Institute (CLSI) guidelines. This method was slightly modified by increasing the assay volumes to 200 μl so as to improve reproducibility.
(§5) A negative control which corresponds to 2 ml of sterile culture medium and a positive control which corresponds to a mixture of 1980 μl of culture medium and 20 μl of bacterial suspension from a thawed biological strain (biological strains are stored at −80 °C in glycerol) were prepared.
(§6) The tubes were incubated in an incubator shaker “Infors” at 37 °C for 24 hours at 100 round per minute (rpm).
(§7) The polyaminated fatty acid compounds to be tested were prepared in water at a concentration of 10 mM.
(§8) The required volume of the microbial suspension to be inoculated was calculated for an optical density (OD) measured corresponding to a value equal to 0.01 in each well by using a spectrophotometer at 600 nm. In the microplate, the first row corresponded to the negative control (200 μl of sterile culture medium in each well), the second row to the positive control (seeded culture medium), the third row was loaded twice with bacterial suspension and with 8 μl of a given polyaminated fatty acid compound in each well. Subsequently, a half-fold cascade dilution was performed from this line. The first column was used as an inhibition control. A sterile filter was then placed on the microplate allowing the passage of gases but not contaminants. The microplate was incubated at 37 °C in a humid atmosphere for 24 hours. After 24 hours of incubation, an optical density measurement was performed by taking 100 μl of the bacterial suspension diluted in 900 μl of sterile culture medium.
(§9) The medium used was Mueller-Hinton medium (MH) for bacteria. All tests were performed in duplicate.
(§10) Table 1 below reports the intrinsic antibacterial activity of some polymaminated fatty acids prepared in example 1 (MIC in μM) as well as their toxicity towards eucaryotic cells (IC50 in μM).
(In general: Broth dilution looks for growth in wells or tubes with falling amounts of substance.)

Experiment [2] has as its system P. aeruginosa ATCC27853. The experiment is described as above. The settings on record: Pseudomonas aeruginosa; P. aeruginosa ATCC27853, compound alone, 24 h, 37 °C. As for the experimental part:
as §3, §4, §5, §6, §7, §8, §9, §10

Another experiment concerns S. aureus ATCC25923. The experiment is described as above. Particulars: Staphylococcus aureus; S. aureus ATCC25923, compound alone, 24 h, 37 °C. As for the experimental part: as §3, §4, §5, §6, §7, §8, §9, §10
The test system of a further experiment is E. coli ATCC28922. The experiment is described as above. The settings on record: Escherichia coli, ATCC28922, 24 h.
Experiment [3] has as its system Chinese hamster ovary cells (CHO-K1). As to the kind of experiment: Toxicity on mammalian cells, WST1 assay. Particulars: Cricetulus griseus; CHO-K1 cell viability, WST1, 24 h. As for the experimental part: The WST1 assay was used to measure the cytotoxic activity of the polyaminated fatty acid compounds. It is a colorimetric assay that measures viability and cell proliferation rate. It is based on the cleavage of colorless tetrazolium salts WST-1 (4-[3-(4-iodophenyl)-2-(4-nitrophenyl)-2H-5-tetrazolio]-1,3-benzene disulfonate) by mitochondrial dehydrogenases into yellow formazan derivative, quantifiable by spectrophotometry at 420-480 nm.
The WST1 assay was performed on Chinese hamster ovary cells. CHO-K1 cells (ATCC, USA) were maintained in culture in “Mac Coy's 5A” medium supplemented with 10% fetal calf serum, 2 mM L-glutamine and streptomycin penicillin mixture (100 U/ml: 10 μg/ml). Incubation is carried out at 37 °C under CO2 enriched atmosphere (5% by volume) and subcultured every two days.
Cells are transferred to 96-well plates (25,000 cells/ml) in complete “Mac Coy's 5A medium”, and maintained for 24 h at 37 °C under a humid CO2-enriched atmosphere (5% by volume). Increasing concentrations of given polyaminated fatty acid compounds are added to the wells in duplicate assays and 8 growth controls containing cells in medium alone are included in each assay run. After 24 hours at 37 °C (5% CO2), the culture medium is removed, the cells are rinsed in phosphate buffer (PBS) and 50 μL of PBS containing 10% WST1 reagent is added to each well. After 20 minutes of incubation at 37 °C, the results are read by spectrophotometry at 450 nm.
The results are expressed as dose-response relationships, modeled by a non-linear regression analysis using TableCurve software. The 50% Inhibitory Concentration (IC50) represents the concentration of polyaminated fatty acid compound capable of reducing cell viability by 50%.
For orientation: Tetrazolium dyes change colour on reduction, which living cells bring about.

The mark [4] stands for this setting: P. aeruginosa ATCC27853 + Doxycycline (2 μg/ml).

The term MIC denotes the least concentration at which growth counts as inhibited. For the compound `C[C@H]1c2cccc(O)c2C(=O)C2=C(O)[C@]3(O)C(=O)C(C(N)=O)=C(O)[C@@H](N(C)C)[C@@H]3[C@@H](O)[C@@H]21` [DOX, doxycycline], the minimal inhibitory concentration (MIC) with P. aeruginosa PA263 (MIC of antibiotic, PA263, +PAFA10 (10 μM)) stood at 8 mg/L; in the experiment with P. aeruginosa PA263 (MIC of antibiotic, PA263, +PAFA11 (10 μM)), 4 mg/L; with P. aeruginosa PA263 (MIC of antibiotic, PA263, +PAFA14 (10 μM)) it was 1 mg/L; in the experiment on P. aeruginosa PA263 (PA263, Antibiotic alone), 32 mg/L; in the experiment on E. coli AG-100A (Antibiotic alone), 0.5 mg/L; in the experiment on E. coli AG-100A (MIC of antibiotic, +PAFA10 (10 μM)) it was 0.25 mg/L. For the same compound, the MIC in the experiment on E. coli AG-100A (MIC of antibiotic, +PAFA11 (10 μM)) amounted to 0.25 mg/L; with E. coli AG-100A (MIC of antibiotic, +PAFA14 (10 μM)), 0.008 mg/L; in the experiment on E. coli AG-100 (AG-100, Antibiotic alone) it was 1 mg/L; in the experiment on E. coli AG-100 (MIC of antibiotic, AG-100, +PAFA10 (10 μM)), 0.25 mg/L; in the experiment with E. coli AG-100 (MIC of antibiotic, AG-100, +PAFA11 (10 μM)), 0.25 mg/L; in the experiment on E. coli AG-100 (MIC of antibiotic, AG-100, +PAFA14 (10 μM)), 0.008 mg/L. The MIC in the experiment with P. aeruginosa PA0509 is 1 mg/L; in the experiment on P. aeruginosa PA0509 (MIC of antibiotic, PA0509, +PAFA10 (10 μM), 24 h), 0.25 mg/L; in the experiment with P. aeruginosa PA0509 (MIC of antibiotic, PA0509, +PAFA11 (10 μM), 24 h) it was 0.25 mg/L; in the experiment on P. aeruginosa PA0509 (MIC of antibiotic, PA0509, +PAFA14 (10 μM), 24 h), 0.125 mg/L; in the experiment with P. aeruginosa PA01 (MIC of antibiotic, PA01, +PAFA10 (10 μM)) it was 2 mg/L; with P. aeruginosa PA01 (MIC of antibiotic, PA01, +PAFA11 (10 μM)) it was 2 mg/L. Besides, the minimum inhibitory concentration (MIC) with P. aeruginosa PA01 (MIC of antibiotic, PA01, +PAFA14 (10 μM)) was determined as 0.125 mg/L; in the experiment on P. aeruginosa PA01 (PA01, Antibiotic alone) it was 32 mg/L; with P. aeruginosa ATCC27853 [1] (antibiotic alone, P. aeruginosa ATCC27853) it was 32 mg/L.
Turning to `CCCCC/C=C\C/C=C\CCCCCCCC(=O)NCCCCN` [PAFA8], the MIC against E. faecalis ATCC29212 was over 200 µM; with P. aeruginosa ATCC27853 [2], over 200 µM; in the experiment on S. aureus ATCC25923, 200 µM (≈ 70.1 µg/mL); with E. coli ATCC28922, over 200 µM.
For orientation: IC50 means the concentration that inhibits the measured activity by half. Read a low IC50 as greater potency in that assay. With `CCCCC/C=C\C/C=C\CCCCCCCC(=O)NCCCN(C)CCCN` [PAFA9], the MIC amounted to 50 µM (≈ 20.4 µg/mL) in the experiment with E. faecalis ATCC29212; 200 µM (≈ 81.5 µg/mL) against P. aeruginosa ATCC27853 [2]; 50 µM (≈ 20.4 µg/mL) against S. aureus ATCC25923; 25 µM (≈ 10.2 µg/mL) against E. coli ATCC28922; 25 µM with P. aeruginosa ATCC27853 [1] (setting [4]). In addition, 84 µM corresponded to half-maximal inhibition in experiment [3] (IC50).
As to `CCCCC/C=C\C/C=C\CCCCCCCC(=O)NCCCN(CCCN)CCCN` [PAFA10], the minimal inhibitory concentration (MIC) against E. faecalis ATCC29212 was 25 µM (≈ 11.3 µg/mL); in the experiment on P. aeruginosa ATCC27853 [2] it was 25 µM (≈ 11.3 µg/mL); against S. aureus ATCC25923, 25 µM (≈ 11.3 µg/mL); in the experiment with E. coli ATCC28922 it was over 200 µM; in the experiment on P. aeruginosa ATCC27853 [1] (setting [4]), 12.5 µM. Besides, half-maximal inhibition in experiment [3] (IC50) required 79 µM.
